Consider seven compounds from patent publication US20220142209A1, “METHODS AND COMPOSITIONS FOR IMPROVING THE TASTE OF DIET COLA SODAS AND OTHER BEVERAGES” (priority 2019, published 2022).

A short description of series [1]: Informal taste test of additives mixed into DIET COKE. The format is in vivo, people. An excerpt: To provide enabling context for some of the embodiments disclosed herein, simple formulations are described here (with more enablement in the Exemplary Embodiments below). Pour into a cup about 7.5 ounces of a DIET COKE® that includes just aspartame. Mix in about one to two teaspoons of ENACO ERC-A20 decocainized liquid coca leaf extract, both liquids at room temperature. […] Adding a bag of sugar (5 grams) results in an even more pleasant taste while providing a cola soda with 80% less sugar. Using glucose instead of sugar (sucrose) produce a fructose-free, low-sugar, cola soda.
(§1) Taste and aroma are not separate sensory experiences. For example, when many people are afflicted with the common cold, and have stuffy noses, they can lose some or all of the taste of foods. This is attributed to the odor sensors in the nose being blocked. Also, when many people eat foods, they can have a time dependent sensory experience, as the (chewed) food travels to the back of the mouth and then some of the aromas enter the back of the nasal cavity, due to retronasal smell (versus orthonasal smell due to aromas entering the front of the nasal cavity, for example, when you sniff a rose). Thus, in many of the embodiments disclosed herein, the term “taste and/or aroma” is used. Also, the Exemplary Embodiments that follows, statements in changes in taste and/or aroma are based on the opinions of a few people. Not all people drinking the embodiments disclosed herein will experience the same degree of improvement in taste and/or aroma.
For the exemplary embodiments that follow, the examples are performed with all liquids at room temperature. Sodas typically taste more pleasant at lower temperatures (sodas retain carbonation better at lower temperatures, which creates a better taste for many people). Any improvements in taste and/or aroma resulting from any of the following embodiments at room temperature are similar, if not more pleasant, at lower temperatures down to freezing. Tastes and/or aromas can also vary due to the use of soda container: glass, plastic, metal or paper. There are many who think that cola sodas taste best when consumed from glass bottles. For many of the exemplary embodiments disclosed herein, Bodum PAVINA® Coffee Mugs, double-wall insulated glass mugs, 8-ounce size, are used.
One embodiment of an improved cola beverage product is understood with the following exemplary method and resulting exemplary article of manufacture. Pour about 7.5 ounces of DIET COKE® (about 220 grams—about 222 milliliters) into a container such as a cup. Mix in about one half teaspoon to two teaspoons (about 2.5 to 10 grams—about 2.5 to 10 milliliters) of coca leaf extract, for example, the ERC-A20 liquid coca extract available from ENACO (Lima, Peru) or its equivalents. […] Any coca leaf extract with similar chemical components (see FIG. 4 and FIG. 11, for example) to ERC-A20 (the version of the extract circa 2018/2019) can be used, and the extracts can be added to other diet sodas such as COKE ZERO® and COKE ZERO SUGAR®.

A short description of series [2]: Taste test of ethyl benzoate in hot unsweetened cacao drink. The format is in vivo, people. Particulars: 5 ml of 24 micrograms per milliliter solution in one cup hot water with about two tablespoons unsweetened cacao powder.
Description: as §1
Some of the unpleasant taste of unsweetened cacao can be removed by using ethyl benzoate. In one exemplary embodiment to improve the taste of any brand of unsweetened cacao and/or chocolate made therefrom, prepare one cup of hot water and add about two tablespoons of unsweetened HERSHEY® cacao powder. Mix in 5 milliliters (one teaspoon) of a liquid (e.g., water) solution that has, for example, 24 micrograms per milliliters of ethyl benzoate. […]

For series [3] the following is noted: adults and children; cited from earlier work.

`CC1=CCC(C(C)(C)O)CC1` (stereo not drawn) [alpha-terpineol]: the “experience of drinking modified DIET COKE” value in series [1] (about one teaspoon of 48 micrograms/milliliter water solution in 220 ml DIET COKE) is reported as “more pleasant”.

`CCOC(=O)c1ccccc1` [ethyl benzoate]: the “taste and/or aroma versus untreated DIET COKE” value in series [1] (about 5 ml (one teaspoon) of about 24 micrograms per milliliter solution in 7.5 ounces DIET COKE) is “more pleasant”. The “taste of resulting beverage” value in series [1] (solution of just ethyl benzoate instead of liquid coca leaf extract, about 7.5 ounces DIET COKE) is “improvement in taste, but lesser of an improvement than with the leaf extract”. The “pleasantness of resulting beverage” value in series [2] was “more pleasant”.

On to `CC1=CCC(C(C)C)=CC1` [gamma-terpinene], for which the “taste of resulting DIET COKE” value in series [1] (one half teaspoon, 40 micrograms/milliliter, in 220 ml DIET COKE) is “while more pleasant as seen with adding alpha-terpineol, also has less of a “coca cola” taste”.

Turning to `C=CC(C)(O)CCC=C(C)C` (stereo not shown) [linalool], in series [1] (one teaspoon, 40 micrograms per milliliter, in 220 ml Diet Coke), the change in unpleasantness entry is listed as “little-to-no change”.

For the compound `COC(=O)c1ccccc1` [methyl benzoate], the “DIET COKE taste” value in series [1] (about 5 ml of solution of about 24 micrograms per milliliter) is “taste similar to that of using ethyl benzoate”.

Consider `O=C([O-])c1ccccc1.[Na+]` [sodium benzoate], for which the Coca-Cola taste entry in series [1] (1/32nd teaspoon (230 milligrams) in 220 ml DIET COKE) is on record as “No improvement”.

As for `OC[C@@H](O)[C@H](O)[C@@H](O)CO` [xylitol], the “taste of resulting beverage” value in series [1] (one teaspoon powdered xylitol dissolved in 1.5 teaspoons ERC-A20, added to 220 ml DIET COKE) was “An improvement in taste is experienced”. Also, in series [3], the safe amounts entry was “less than 20 grams a day”.
